The results in this text go back to US4954513A, “Leukotriene antagonists” (SmithKline Beecham Corporation, priority 1988, dated 1990).

The target of the experiment is T1, leukotriene induced contraction of guinea pig tracheal tissues (Cavia porcellus, UniProt Q2NNR5).
T1 construct: Guinea pig (adult male albino Hartley strain) tracheal spiral strips; from tissue; host or cells: guinea pig (adult male albino Hartley) tracheal spiral strips
T1 sequence (Q2NNR5 1-340): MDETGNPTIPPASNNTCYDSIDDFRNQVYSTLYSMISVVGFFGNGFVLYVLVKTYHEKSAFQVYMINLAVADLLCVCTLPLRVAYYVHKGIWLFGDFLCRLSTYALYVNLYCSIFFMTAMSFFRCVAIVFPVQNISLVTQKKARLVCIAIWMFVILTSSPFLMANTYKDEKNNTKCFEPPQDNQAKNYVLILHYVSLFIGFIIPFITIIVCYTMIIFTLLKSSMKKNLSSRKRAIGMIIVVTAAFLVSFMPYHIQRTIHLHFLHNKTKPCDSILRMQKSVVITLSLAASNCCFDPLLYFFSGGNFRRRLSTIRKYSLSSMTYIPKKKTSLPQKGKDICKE
Nature of the experiment: Inhibition of leukotriene (LTD4) induced contraction of guinea pig tracheal spiral strips in vitro. The class given is cell-based. To be noted: LTD4 concentration-response on guinea pig tracheal strips, 30 min pretreatment with test compound, meclofenamic acid 1uM; EC30 shift; current average data; read-out: -LogKB (converted). As to the method:
The leukotriene antagonist activity of the compounds of this invention is measured by the ability of the compounds to inhibit the leukotriene induced contraction of guinea pig tracheal tissues in vitro. The following methodology was employed: In vitro: Guinea pig (adult male albino Hartley strain) tracheal spiral strips of approximate dimensions 2 to 3 mm cross sectional width and 3.5 cm length were bathed in modified Krebs buffer in jacketed 10 ml tissue bath and continuously aerated with 95% O2 /5% CO2. The tissues were connected via silk suture to force displacement transducers for recording isometric tension. The tissues were equilibrated for 1 hr., pretreated for 15 minutes with meclofenamic acid (1uM) to remove intrinsic prostaglandin responses, and then pretreated for an additional 30 minutes with either the test compound or vehicle control. A cumulative concentration-response curve for LTD4 on triplicate tissues was generated by successive increases in the bath concentration of the LTD4. In order to minimize intertissue variability, the contractions elicited by LTD4 were standardized as a percentage of the maximum response obtained to a reference agonist, carbachol (10uM). Calculations: The averages of the triplicate LTD4 concentration response curves both in the presence and absence of the test compound were plotted on log graph paper. The concentration of LTD4 needed to elicit 30% of the contraction elicited by carbachol was measured and defined as the EC30. The -log KB value for the test compound was determined by the following equations: [formula] […] The antagonist activity of representative compounds of this invention is listed in Table I. The -log KB values were calculated from the above protocol. Where compounds were tested more than once, the -log KB values given here represent the current average data.
Turning to `O=C(CCSC(c1ccccc1CCCCCCCCc1ccccc1)C(O)C(=O)O)NS(=O)(=O)c1ccccc1` (stereo not drawn) [2-Hydroxy-3-[2-(N-phenylsulfonylcarbamoylethyl)thio]-3-[2-(8 phenyloctyl)phenyl]propanoic acid], the Kd is 39.8 nM.
Take `O=C(O)CCSC(CC(=O)NS(=O)(=O)c1ccccc1)c1ccccc1CCCCCCCCc1ccccc1` (stereo not drawn) [Compound 2, N-[3-(Carboxyethylthio)-3-[2-(8-phenyloctyl)phenyl]]propionylbenzenesulfonamide]: the Kd was 316 nM.
As for `CS(=O)(=O)NC(=O)CC(SCCC(=O)O)c1ccccc1CCCCCCCCc1ccccc1` (stereo not drawn) [Compound 3, N-[3-(carboxyethylthio)-3-[2 (8 phenyloctyl)phenyl]propionyl]methanesulfonamide], the Kd is 398 nM.
